Assay results reported in patent publication US12343318B2, “Use of compound or medicinal derivative thereof in inhibiting AIM2 protein activity” (Liangdan Sun, priority 2023, dated 2025).

Columns and labels:
mouse AIM2 protein = target: T1, mouse AIM2 protein (Mus musculus, UniProt Q91VJ1); experiment: Affinity by SPR (Biacore, CM5 chip amino coupling), mouse AIM2; settings: mouse full-length AIM2 protein, read-out: binding constant KD
T1 construct: a mouse full-length AIM2 protein is expressed and purified firstly by pET28A vector; made in house
T1 sequence (Q91VJ1 1-354): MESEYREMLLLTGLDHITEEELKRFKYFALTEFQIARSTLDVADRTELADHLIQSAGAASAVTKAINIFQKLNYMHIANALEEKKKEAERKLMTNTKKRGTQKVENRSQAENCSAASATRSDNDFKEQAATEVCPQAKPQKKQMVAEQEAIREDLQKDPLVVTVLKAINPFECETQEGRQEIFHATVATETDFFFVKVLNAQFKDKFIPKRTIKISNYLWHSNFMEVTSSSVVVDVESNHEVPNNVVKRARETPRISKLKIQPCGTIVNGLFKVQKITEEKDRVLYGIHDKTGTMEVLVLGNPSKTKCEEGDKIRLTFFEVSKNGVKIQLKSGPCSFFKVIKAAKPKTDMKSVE
Protocol: (§1) In the embodiment of the disclosure, the affinity between T6S1683 and mouse AIM2 protein is detected. Specifically, a mouse full-length AIM2 protein is expressed and purified firstly by pET28A vector, and then the affinity is determined by CM5 chip amino coupling method by the SPR method of Biacore.

HaCaT cells = experiment: Cell state (pyroptosis) of OligodA-T transfected HaCaT cells under microscope; assay type: cell-based; settings: 10 uM, microscope 100×
[1] = tested on: IL-1β mRNA in HaCaT cells; experiment: Real-time fluorescence PCR of IL-1β mRNA in HaCaT cells stimulated by OligodA-T; assay type: cell-based; settings: 10 uM, 24 hours
Protocol: The protective ability of 44 compounds screened above against cell pyroptosis of HaCaT cells stimulated by OligodA-T is evaluated by the real-time fluorescent quantitative polymerase chain reaction (PCR) detection of IL-1β mRNA in the stimulated cells. […] Positive control (PC) and negative control (NC) are set in the experimental group. An inclusion of Lip3000 (Lipofectamine™ 3000 Transfection Reagent) and OligodA-T (OligodA-T: Lip3000:P3000=1:1:25, a concentration of OligodA-T is 1 microgram per […] abbreviated as ug/mL) is used to transfect HaCat cells. […] Each experimental group is incubated in a cell incubator containing 5% CO2 for 24 hours at 37° C., and the cells are collected for real-time fluorescence PCR detection.
• (1) A positive control (PC), a negative control (NC) and respective treatment groups are set. […] The HaCat cells are co-transfected with inclusions of Lip3000-OligodA-T at gradient doses (0.1 uM, 1 uM, 5 uM, 10 uM and 25 uM) of T6S1683 in the respective treatment groups. • (2) The positive control (PC), the negative control (NC) and the respective treatment groups are incubated in a cell incubator containing 5% CO2 at 37° C. for 24 hours, and the cells are collected for real-time fluorescence PCR detection to observe the effects of different doses of inhibitors on the activation of AIM2 pathway in the HaCaT cells.

[2] = tested on: AIM2 downstream protein in HaCat cells; experiment: AIM2 downstream protein expression in HaCaT cells (Western Blot, ELISA); assay type: cell-based; settings: 10 uM
IMQ mice = experiment: IMQ psoriasis mouse model: PASI scores, skin and pathological phenotypes; assay type: in vivo, C57/BL6 mice
Protocol: (§2) In the embodiment of the disclosure, dimethyl sulfoxide (DMSO) is used to dissolve T6S1683 powder, the powder is weighed according to different dosage, then diluted with β-cyclodextrin, and a final concentration of DMSO shall not exceed 5%. The dose gradients of T6S1683 set are 0 mg/kg, 1 mg/kg, 2.5 mg/kg, 5 mg/kg and 10 mg/kg respectively. Each mouse is calculated as 20 grams (g), and 0 mg/kg, 1 mg/kg, 2.5 mg/kg, 5 mg/kg and 10 mg/kg of T6S1683 are administered respective mice every day.
Seven-week-old C57/BL6 mice are selected, fed and modeled in a […] (SPF) environment. The experimental groups are as follows. (a) mouse skin smeared with IMQ and 0 mg/kg of T6S1683; (b) mouse skin smeared with IMQ and 1 mg/kg of T6S1683; (c) mouse skin smeared with IMQ and 2.5 mg/kg of T6S1683; (d) mouse skin smeared with IMQ and 5 mg/kg of T6S1683; (e) mouse skin smeared with IMQ and 10 mg/kg of T6S1683; (f) mouse skin smeared with Vaseline and 0 mg/kg of T6S1683; (g) mouse skin smeared with Vaseline and 1 mg/kg of T6S1683; (h) mouse skin smeared with Vaseline and 2.5 mg/kg of T6S1683; (i) mouse skin smeared with Vaseline and 5 mg/kg of T6S1683; and (j) mouse skin smeared with Vaseline and 10 mg/kg of T6S1683. (Note: the daily dosage of IMQ in groups (a), (b), (c), (d) and (e) is 62.5 mg/mouse, and the daily dosage of Vaseline in groups (f), (g), (h), (i) and (j) is 62.5 mg/mouse.)
Six mice in each group above, and the mice are shaved back hair to make an exposed skin reach 4 square centimeters. A start date of the experiment is set as Day 0 and an end date is set as Day 6. From Day 0 to Day 5, 500 μL medicine solution is applied daily and evenly smeared mouse skin to absorb, with 500 uL applied in the morning at a dose of 150 uL, at noon at 200 uL, and at night at 150 uL. […] The mouse skins are scored every day, the mice are sacrificed on Day 6, and skin tissue is taken for a series of tests. […]

human AIM2 protein = target: T2, human AIM2 protein (Homo sapiens, UniProt O14862); experiment: Affinity by SPR (Biacore, CM5 chip amino-coupling), human AIM2; settings: human full-length AIM2 protein, read-out: binding constant KD
T2 construct: a human full-length AIM2 protein is expressed and purified firstly by pET28A vector; made in house
T2 sequence (O14862 1-343): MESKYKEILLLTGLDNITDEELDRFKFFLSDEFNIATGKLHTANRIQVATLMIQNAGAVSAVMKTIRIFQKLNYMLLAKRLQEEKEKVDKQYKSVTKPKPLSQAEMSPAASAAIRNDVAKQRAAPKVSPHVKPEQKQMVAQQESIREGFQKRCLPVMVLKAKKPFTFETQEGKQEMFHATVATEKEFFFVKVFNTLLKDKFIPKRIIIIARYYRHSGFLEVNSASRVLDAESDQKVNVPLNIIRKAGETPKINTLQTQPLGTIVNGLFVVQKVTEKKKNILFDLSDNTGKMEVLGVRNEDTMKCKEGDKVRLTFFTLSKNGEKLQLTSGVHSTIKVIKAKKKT
Protocol: as §1, with “human” for “mouse”, “amino-coupling” for “amino coupling”, “through a surface-plasmon resonance (SPR)” for “by the SPR”

[3] = tested on: IL-1β gene expression in the mouse skin; experiment: Transcription levels of AIM2 pathway genes in skin of IMQ mice; assay type: in vivo, C57/BL6 mice; settings: 5 mg/kg, smeared on skin
Protocol: as §2
(§3) Seven-week-old C57/BL6 mice are selected, fed and modeled in a […] (SPF) environment. The experimental groups are as follows. […]
(§4) Six mice in each group above, and the mice are shaved back hair to make an exposed skin reach 4 square centimeters. […] The mouse skins are scored every day, the mice are sacrificed on Day 6, and skin tissue is taken for a series of tests.

[4] = tested on: TCRγ/CD3^+RORγt cells in the lymphocytes of mouse skin; experiment: Flow cytometry of skin lymphocytes of IMQ mice; assay type: in vivo, C57/BL6 mice; settings: 5 mg/kg, smeared on skin
Protocol: as §2, §3, §4
Next, skin lymphocytes of the mice in each group (proportion of TCRγ/CD3^+RORγt cells in the lymphocytes of mouse skin, which are the main effector cells mediated by AIM2 pathway in psoriasis and can secrete a large amount of IL-17 cytokines to aggravate psoriasis) are detected by flow cytometry.

Kd (mouse AIM2 protein): 5.12 µM | Kd (human AIM2 protein): 1.56 µM
Compound: COc1cc(/C=C/C(=O)CC(=O)/C=C/c2ccc(O)cc2)ccc1O [T6S1683, 1,6-heptadiene-3,5-dione,1-(4-hydroxy-3-methoxyphenyl)-7-(4-hydroxyphenyl)-,(1E, 6E)-]
cell state (HaCaT cells): close to that of the NC group | IL-β transcription levels compared to the PC group ([1]; among 5 dose gradients (0.1, 1, 5, 10, 25 uM)): reduced IL-β transcription levels in the HaCat cells the most | inhibitory effect on IL-1β mRNA compared with the positive control ([1]; screening of 44 compounds, OligodA-T 1 ug/mL): most significant inhibitory effect | expression of AIM2 downstream protein (Western Blot) [2]: slightly decreases | secretion of IL-1β (ELISA) [2]: inhibitory effect | effect on inflammatory phenotype of IMQ mice (IMQ mice; 1 mg/kg, smeared on skin): no difference | reduction effect on inflammatory phenotype of IMQ mice (IMQ mice; 5 mg/kg, smeared on skin): the most significant | inflammatory phenotype of IMQ mice (IMQ mice; three doses, smeared on skin daily Day 0 to Day 5): reduced the inflammatory phenotype of IMQ mice to varying degrees | IL-1β gene expression level in mouse skin [3]: significantly down-regulated | proportion of TCRγ/CD3^+RORγt compared with IMQ mice without T6S1683 [4]: significantly lower
